Here are results for 5 molecules from patent publication US20180291353A1, “MONOFUNCTIONAL ALDEHYDE AND ALCOHOL DEHYDROGENASES FOR PRODUCTION OF FUELS AND COMMODITY CHEMICALS” (The Regents of the University of California, priority 2015, published 2018).

Series [1] deals with T1, AdhE2-ADH (alcohol dehydrogenase domain of bifunctional AdhE2, wild type, GI 499193180, SEQ ID NO: 41) (Clostridium acetobutylicum, UniProt Q9ANR5).
T1 construct: alcohol dehydrogenase activity (C-terminal domain) measured
T1 sequence (Q9ANR5 1-858): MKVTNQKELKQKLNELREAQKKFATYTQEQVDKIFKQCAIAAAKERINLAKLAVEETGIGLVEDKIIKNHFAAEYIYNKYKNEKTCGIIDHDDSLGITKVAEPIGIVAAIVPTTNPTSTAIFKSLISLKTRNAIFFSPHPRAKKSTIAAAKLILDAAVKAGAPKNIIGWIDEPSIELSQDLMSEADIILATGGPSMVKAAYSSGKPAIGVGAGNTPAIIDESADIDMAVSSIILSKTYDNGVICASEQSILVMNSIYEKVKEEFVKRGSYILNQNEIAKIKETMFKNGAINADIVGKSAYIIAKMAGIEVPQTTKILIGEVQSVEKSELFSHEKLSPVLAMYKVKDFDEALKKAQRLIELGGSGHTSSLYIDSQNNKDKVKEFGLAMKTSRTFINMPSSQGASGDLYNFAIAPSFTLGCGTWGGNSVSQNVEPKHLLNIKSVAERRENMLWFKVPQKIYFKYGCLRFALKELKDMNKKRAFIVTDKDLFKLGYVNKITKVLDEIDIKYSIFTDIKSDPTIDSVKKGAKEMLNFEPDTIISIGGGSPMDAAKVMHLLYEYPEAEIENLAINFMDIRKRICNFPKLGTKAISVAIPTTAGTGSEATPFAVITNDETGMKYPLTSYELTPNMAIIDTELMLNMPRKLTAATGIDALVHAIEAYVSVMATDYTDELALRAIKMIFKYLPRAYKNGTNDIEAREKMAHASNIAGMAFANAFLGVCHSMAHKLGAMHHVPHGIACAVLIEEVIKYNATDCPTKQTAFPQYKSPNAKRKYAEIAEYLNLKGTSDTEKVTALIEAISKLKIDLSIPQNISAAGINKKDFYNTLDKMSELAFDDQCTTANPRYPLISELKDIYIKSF
The series can be described thus: In vitro kinetics of aldehyde/alcohol dehydrogenases, oxidation of NADH at 340 nm (alcohol dehydrogenase domain of AdhE2). Format: biochemical. How it is done:
(§1) Activity of ALDH proteins was measured by monitoring the oxidation of NADH at 340 nm at 30° C. The assay mixture (400 μL) contained 100 μM NADH in 100 mM Tris 1 mM DTT pH 7.5. The reaction was initiated by the addition of substrate. Kinetic parameters (kcat, KM) were determined by fitting the data using Microcal Origin to the equation: vo=vmax [S]/(KM+[S]), where v is the initial rate and [S] is the substrate concentration. Data are reported as mean±s.e. (n=3) unless otherwise noted with standard error derived from the nonlinear curve fitting. Error bars on graphs represent mean±s.d. (n=3). Error in kcat/KM is calculated by propagation of error from the individual kinetic parameters.
(§2) To further explore the potential for expressing monofunctional aldehyde and alcohol dehydrogenases in host cells for the production of alcohols, various aldehyde and alcohol dehydrogenases were purified and isolated to investigate their in vitro kinetic behavior with various C4 and C2 substrates. In particular, the monofunctional aldehyde dehydrogenase identified in FIG. 3 above (GI 150018649, also referred to as ALDH16) was purified (FIG. 4A and FIG. 4B) and the in vitro kinetic behavior of a purified Strep-ALDH16 protein with various C4 and C2 substrates was tested.

In series [2] the target is T2, ALDH16 (monofunctional aldehyde dehydrogenase, GI 150018649, SEQ ID NO: 16; Strep-ALDH16) (Clostridium diolis, UniProt A0AAV3W6M8).
T2 sequence (A0AAV3W6M8 1-468): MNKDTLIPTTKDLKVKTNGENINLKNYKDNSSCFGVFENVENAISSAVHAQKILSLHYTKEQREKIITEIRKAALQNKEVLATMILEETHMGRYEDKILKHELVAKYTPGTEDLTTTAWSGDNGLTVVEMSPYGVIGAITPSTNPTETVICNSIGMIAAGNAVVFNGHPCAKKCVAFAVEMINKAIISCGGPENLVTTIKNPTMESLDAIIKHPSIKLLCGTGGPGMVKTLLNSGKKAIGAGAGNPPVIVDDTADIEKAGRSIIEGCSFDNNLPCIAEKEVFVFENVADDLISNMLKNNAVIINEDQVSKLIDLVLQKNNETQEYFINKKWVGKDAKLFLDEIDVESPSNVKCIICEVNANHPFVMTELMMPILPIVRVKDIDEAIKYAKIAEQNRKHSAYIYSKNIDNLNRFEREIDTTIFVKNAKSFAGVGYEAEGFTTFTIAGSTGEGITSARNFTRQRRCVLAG
The series can be described thus: In vitro kinetics of aldehyde/alcohol dehydrogenases, oxidation of NADH at 340 nm (purified Strep-ALDH16). In kind it is biochemical. How it is done:
as §1, §2

Series [3] deals with T3, AdhE2-ALDH (aldehyde dehydrogenase domain of bifunctional AdhE2, wild type, GI 499193180, SEQ ID NO: 41) (Clostridium acetobutylicum, UniProt Q9ANR5).
T3 sequence (Q9ANR5 1-858): T1 sequence (Q9ANR5 1-858)
As to the kind of experiment: In vitro kinetics of aldehyde/alcohol dehydrogenases, oxidation of NADH at 340 nm (aldehyde dehydrogenase domain of AdhE2).

Substrate in series [4]: CC=O
The series can be described thus: In vitro kinetics of aldehyde/alcohol dehydrogenases, oxidation of NADH at 340 nm (alcohol dehydrogenase domain of AdhE2). Format: biochemical. The note with it: other: 100 μM NADH, 100 mM Tris, 1 mM DTT, pH 7.5, 30° C., mean±s.e. (n=3). How it is done: as §1, §2

Substrate in series [5]: CCCC=O
The series is described as above. In kind it is biochemical. The note with it: other: 100 μM NADH, 100 mM Tris, 1 mM DTT, pH 7.5, 30° C., mean±s.e. (n=3). How it is done:
as §1, §2

For series [6], the system named is butanol production pathway. As to the kind of experiment: Butanol and ethanol production in E. coli MC1.24 (quintuple KO) with bifunctional or monofunctional dehydrogenases (FIG. 5). In kind it is cell-based. The note with it: E. coli MC1.24, FIG. 5. An excerpt: FIG. 5 illustrates genetically engineered improvement of a butanol production pathway composed of monofunctional aldehyde and alcohol dehydrogenases. The fuel titer of either butanol or ethanol in E. coli cells expressing the biosynthetic pathway shown in FIG. 6A with various particular alcohol and/or aldehyde dehydrogenases is shown. Specifically, E. coli MC1.24 (quintuple KO) was transformed with pT533-phaA.HBD, pBBR2-aceE.F.lpd and 1: pCWO.trc-ter-adhE2, 2: pCDF3-aldh16, 3: pCWori-ter-aldh16.CaADH, or 4: pCWO.trc-ter-aldh16.CaADH as indicated.
. The cultures were grown at 37° C. in a rotary shaker (200 r.p.m.) and induced with IPTG (1.0 mM) at OD600=0.35-0.45. At this time, the growth temperature was reduced to 30° C., and the culture flasks were sealed with Parafilm M (Pechiney Plastic Packaging) to prevent product evaporation for aerobic cultures. Anaerobic cultures were sealed and the headspace was sparged with argon for 5 minutes immediately follow induction. Aerobic cultures were unsealed for 10 to 30 min every 24 h then resealed with Parafilm M, and additional glucose (1% (w/v)) was added 1 day post-induction. Samples were quantified after 3 d of cell culture.
Samples (2 ml) were removed from cell culture and cleared of biomass by centrifugation at 20,817 g for 2 min using an Eppendorf 5417R centrifuge. The supernatant or cleared medium sample was then mixed in a 9:1 ratio with an aqueous solution containing the isobutanol internal standard (10,000 mg l^−1). These samples were then analyzed on a Trace GC Ultra (Thermo Scientific) using an HP-5MS column (0.25 mm×30 m, 0.25 μM film thickness, J & W Scientific). The oven program was as follows: 75° C. for 3 min, ramp to 300° C. at 45° C. min^−1, 300° C. for 1 min. n-Butanol was quantified by flame ionization detection (FID) (flow: 350 ml min^−1 air, 35 ml min^−1 H2 and 30 ml min^−1 helium). Samples containing n-butanol levels below 500 mg 1^−1 were requantified after extraction of the cleared medium sample or standard (500 μl) with toluene (500 μl) containing the isobutanol internal standard (100 mg 1^−1) using a Digital Vortex Mixer (Fisher) for 5 min set at 2,000. The organic layer was then quantified using the same GC parameters with a DSQII single-quadrupole mass spectrometer (Thermo Scientific) using single-ion monitoring (m/z 41 and 56) concurrent with full scan mode (m/z 35-80). Samples were quantified relative to a standard curve of 2, 4, 8, 16, 31, 63, 125, 250, 500 mg 1^−1 n-butanol for MS detection or 125, 250, 500, 1,000, 2,000, 4,000, 8,000 mg 1^−1 n-butanol for FID detection. Standard curves were prepared freshly during each run and normalized for injection volume using the internal isobutanol standard (100 or 1,000 mg 1^−1 for MS and FID, respectively). […]

[7] abbreviates: 100 μM NADH, 100 mM Tris, 1 mM DTT, pH 7.5, 30° C., mean±s.e. (n=3).

As for `CC=O` [acetaldehyde], the kcat in series [1] (setting [7]) stood at 5.6 ± 0.1 s⁻¹. The “preference for acetaldehyde over butyraldehyde” value in series [1] (from Table 4) turned out to be 1.7 fold.
As for `CCCC(=O)SCCNC(=O)CCNC(=O)[C@H](O)C(C)(C)COP(=O)(O)OP(=O)(O)OC[C@H]1O[C@@H](n2cnc3c(N)ncnc32)[C@H](O)[C@@H]1OP(=O)(O)O` [butyryl-CoA], the catalytic constant (kcat) came to 0.11 ± 0.01 s⁻¹ in series [2] (setting [7]) and 1.2 ± 0.1 s⁻¹ in series [3] (setting [7]). For the same molecule, in series [2] (from Table 4), the “preference (specificity) for butyryl-CoA over acetyl-CoA” value is on record as 73 fold. The “preference for butyryl-CoA over acetyl-CoA” value in series [3] (from Table 4) stood at 8.5 fold.
Take `CC(=O)SCCNC(=O)CCNC(=O)[C@H](O)C(C)(C)COP(=O)(O)OP(=O)(O)OC[C@H]1O[C@@H](n2cnc3c(N)ncnc32)[C@H](O)[C@@H]1OP(=O)(O)O` [acetyl-CoA]: the “higher KM for acetyl-CoA” value in series [2] (compared with ALDH domain of AdhE2) was determined as 5 fold.

B1: AdhE2-ADH (alcohol dehydrogenase domain of bifunctional AdhE2, wild type, GI 499193180, SEQ ID NO: 41) (Clostridium acetobutylicum) (protein)
chain: T1 sequence (Q9ANR5 1-858)
notes: alcohol dehydrogenase activity (C-terminal domain) measured
With B1, the Km in series [4] worked out at 4.5 ± 0.3 mM. In series [5], the Michaelis-Menten constant (Km) is 4 ± 0.4 mM, the kcat was found to be 2.9 ± 0.1 s⁻¹ and the kcat/Km amounted to 700 ± 20 M⁻¹ s⁻¹.

B2: AdhE2: bifunctional alcohol and aldehyde dehydrogenase, wild-type AdhE2 (protein, listed as Clostridium acetobutylicum)
chain: T1 sequence (Q9ANR5 1-858)
Regarding B2, in series [6], the butanol production is 4.5 g/L and the ethanol production came out at 3 g/L.

The term kcat denotes the maximal rate divided by the concentration of active sites. Usually Km stands for the concentration of substrate that gives half-maximal velocity. For orientation: kcat/Km means the second-order rate constant that governs catalysis at low substrate concentration.
